IC50 and inhibition data for one compound are collected here from ChEMBL document CHEMBL3396964, “SAH derived potent and selective EZH2 inhibitors” (Bioorg Med Chem Lett, 2015).

Active and inactive are the calls of the source. The calls are words filed in the database; no cut-off is given here. Bounds are passed on as bounds.

Assay [1] has as its target Histone-lysine N-methyltransferase EZH2 (Homo sapiens, UniProt O75530+Q09028+Q15022+Q15910). In words: Inhibition of N-terminally FLAG-tagged wild type EZH2 in EZH2/SUZ12/EED/RbAp48 complex (unknown origin) expressed in baculovirus infected in SF9 cells assessed as inhibition of methylation of nucleosomes at H3K27 by scintillation counting in presence of [3H]SAM.
Assay [2] addresses Histone-lysine N-methyltransferase EZH2 (Homo sapiens) (UniProt Q15910). In words: Inhibition of EZH2 (unknown origin) at 100 uM by cell-based assay.
In assay [3] the target is Histone-lysine N-methyltransferase SETDB1 (Homo sapiens, UniProt Q15047). In words: Inhibition of SETDB1 (unknown origin) by HMT assay.

Histone-lysine N-methyltransferase EZH2 (Homo sapiens), sequence (Q15910 whole entry, looked up): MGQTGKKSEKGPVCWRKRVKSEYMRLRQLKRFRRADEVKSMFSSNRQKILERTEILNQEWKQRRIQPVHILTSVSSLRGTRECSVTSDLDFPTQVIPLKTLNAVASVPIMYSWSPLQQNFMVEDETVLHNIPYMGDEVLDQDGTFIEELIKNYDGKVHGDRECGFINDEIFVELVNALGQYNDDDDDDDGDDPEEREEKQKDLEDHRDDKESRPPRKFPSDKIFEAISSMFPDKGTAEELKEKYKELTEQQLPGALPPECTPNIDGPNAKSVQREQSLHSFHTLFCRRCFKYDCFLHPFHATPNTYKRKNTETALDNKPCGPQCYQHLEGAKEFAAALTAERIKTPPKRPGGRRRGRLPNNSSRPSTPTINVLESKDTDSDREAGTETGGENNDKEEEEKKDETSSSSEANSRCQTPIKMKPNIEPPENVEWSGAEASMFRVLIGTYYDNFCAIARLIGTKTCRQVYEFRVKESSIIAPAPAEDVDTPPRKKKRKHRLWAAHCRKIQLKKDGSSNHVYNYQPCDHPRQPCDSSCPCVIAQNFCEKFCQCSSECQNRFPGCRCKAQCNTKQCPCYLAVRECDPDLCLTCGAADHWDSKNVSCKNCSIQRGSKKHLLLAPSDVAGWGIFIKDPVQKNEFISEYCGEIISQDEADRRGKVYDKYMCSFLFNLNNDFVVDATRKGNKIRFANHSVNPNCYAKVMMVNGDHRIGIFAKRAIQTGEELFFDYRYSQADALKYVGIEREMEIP
Histone-lysine N-methyltransferase EZH2, sequence (Q15910 whole entry, one chain of several): as the sequence (Q15910 whole entry, looked up) above

What is called IC50 is the point on the concentration scale where inhibition reaches its midpoint. For `Nc1ncnc2c1ncn2[C@@H]1O[C@H](CSCC[C@H](N)C(=O)NCc2cc(-c3ccccc3)[nH]n2)[C@@H](O)[C@H]1O`, the IC50 in assay [1] was 270 nM; in assay [3] it was above 100000 nM. Moreover, in assay [2], the inhibition entry is “inactive”.
